Results reported in PubChem BioAssay (NCI).
Where “and” joins values, the source holds several entries; their conditions need not be identical. Equal values may be shown once.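 Dose response: 5 concentrations. Exposure: 48 h. Format: 96-well plates. Endpoint: linear interpolation; highest concentration if not reached. At the GI50, growth is halved. TGI marks complete inhibition of growth.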

Columns and labels:
Test in all cases: NCI-60 cell line screen, 48 h
OVCAR-8 ovarian = test system: OVCAR-8 ovarian
NCI/ADR-RES ovarian = test system: NCI/ADR-RES ovarian
DU-145 prostate = test system: DU-145 prostate
U251 CNS = test system: U251 CNS
A549 NSCLC = test system: A549 NSCLC
KM12 colon = test system: KM12 colon
HOP-92 NSCLC = test system: HOP-92 NSCLC
A498 renal = test system: A498 renal
RXF 393 renal = test system: RXF 393 renal
SNB-19 CNS = test system: SNB-19 CNS

Compound | GI50 (OVCAR-8 ovarian) [µM] | TGI (OVCAR-8 ovarian) | GI50 (NCI/ADR-RES ovarian) [µM] | TGI (NCI/ADR-RES ovarian) | GI50 (DU-145 prostate) [µM] | TGI (DU-145 prostate) | GI50 (U251 CNS) [µM] | TGI (U251 CNS) | GI50 (A549 NSCLC) [µM] | TGI (A549 NSCLC) | GI50 (KM12 colon) [µM] | TGI (KM12 colon) | GI50 (HOP-92 NSCLC) [µM] | TGI (HOP-92 NSCLC) | GI50 (A498 renal) [µM] | TGI (A498 renal) | GI50 (RXF 393 renal) [µM] | TGI (RXF 393 renal) | GI50 (SNB-19 CNS) [µM] | TGI (SNB-19 CNS)
Clc1ccc(/C=C/c2cc(N3CCOCC3)c3cc(Cl)c(Cl)cc3n2)cc1 | > 100 | > 100 µM | > 100 | > 100 µM | > 100 | > 100 µM | > 100 | > 100 µM | > 100 | > 100 µM | > 51.4 | > 100 µM | > 100 | > 100 µM | > 100 | > 100 µM | > 100 | > 100 µM | > 100 | > 100 µM
S=C(N/N=C(/c1ccccc1)c1ccccn1)N1CCCCC1 | < 0.001 | 1.96 µM and 1.69 µM | < 0.001 | 1.87 µM and 0.986 µM | 1.11 | 2.32 µM and 2.87 µM | < 0.001 | 1.45 µM and 1.76 µM | 0.00361 | 1.71 µM and 3.88 µM | 0.00123 | 1.79 µM and 2.11 µM | 1.16 | 2.27 µM and 2.81 µM | 0.0815 | 1.43 µM and 2.37 µM | 0.0129 | 1.43 µM and 3.38 µM | 1.1 | 2.9 µM and 5.49 µM
Cc1cc(NCCCNc2ccnc3cc(Cl)ccc23)nc(N2CCN(C)CC2)n1 | 7.76 | 44 µM | 17.5 | 61.7 µM | 5.5 | 17.9 µM | 3.91 | 17.2 µM | 3.66 | 16.5 µM | 3.97 | 17.1 µM | 15.2 | 37.4 µM | 14.4 | 28.3 µM | 1.35 | 4.99 µM | 12.5 | 49.5 µM
Cc1ccc(NC(=O)Cc2ccc(/C=C/C(=O)c3ncc[nH]3)cc2)cc1 | 7.24 | > 25 µM | 6.73 | > 25 µM | 4.56 | > 25 µM | 1.59 | > 25 µM | 9.14 | > 25 µM | 3.09 | 12.7 µM | 18.5 | > 25 µM | 19.9 | > 25 µM | 7.68 | > 25 µM | 6.65 | > 25 µM
CCOC(=O)c1sc2ncn(Cc3cccc(Br)c3)c(=O)c2c1C | 51.1 | > 100 µM | 18.9 | > 100 µM | 88.8 | > 100 µM | 31.7 | > 100 µM | 56.2 | > 100 µM | 28.9 | > 100 µM | 31.1 | > 100 µM | 18.2 | 80.1 µM | 29 | > 100 µM | > 100 | > 100 µM
O=c1c2c3c(sc2n2c(-c4cc(-c5ccccc5)no4)nnc2n1Cc1ccccc1)CCCC3 | 21.4 | > 100 µM | 30.2 | > 100 µM | 19.6 | > 93.3 µM | 17.3 | > 100 µM | 10.5 | > 86.5 µM | 15.8 | 55.2 µM | 6.66 | > 100 µM | 36.5 | > 100 µM | 4.13 | 26.7 µM | 31.8 | > 100 µM
CCCc1cc(O)c2c3c(c(=O)oc2c1)CN(C)CC3 | > 100 | > 100 µM | > 100 | > 100 µM | > 100 | > 100 µM | 56.4 | > 100 µM | > 100 | > 100 µM | 87.3 | > 100 µM | 15.7 | > 100 µM | 15.8 | 98.5 µM | 23.1 | > 100 µM | > 100 | > 100 µM
N#Cc1cccc(OCc2nc(N)nc(N)c2-c2ccc(Cl)c(Cl)c2)c1 | 0.765 | > 100 µM | 1.19 | > 100 µM | 4.08 | > 100 µM | 0.749 | > 100 µM | 0.426 | > 100 µM | 2.96 | 82.4 µM | 1.82 | 9.06 µM | 2.9 | > 100 µM | 2.13 | > 100 µM | 4.28 | > 100 µM
